For series [1], the system named is popliteal lymph node cells. Put plainly: reporter antigen popliteal lymph node (PLN) assay. The class given is in vivo, BALB/C mice. From the text: Analysis of immune suppression. Glucocorticoid steroids such as dexamethasone or hydrocortisone are typically immune suppressive and have significant toxicities associated with their use. Immune suppression was examined in a reporter antigen popliteal lymph node assay in mice essentially as previously described (C. Goebel et al., Inflamm. Res., 45(Suppl. 2):S85-S90, 1996; R. Pieters et al., Environmental Health Perspectives 107(Suppl. 5):673-677, 1999). […] In this protocol, the vehicle was 0.1% carboxymethylcellulose, 0.9% saline, 2% tween 80 and 0.05% phenol, which contained 17α-ethynylandrost-5-ene-3β,7β,17β-triol in suspension in drug treated animals. Assessment of activity included (1) measuring suppression of numbers of total lymphocytes, antigen specific IgM, IgG1 and IgG2a antibody secreting cells (ASC) (ELISPOT assay) in popliteal lymph node cells; (2) analysis of cell surface marker (CD4, CD8, CD19, F480, CD80, CD86) expression by flow cytometry of living cells in suspension; and (3) IL-4, TNFα and IFNγ production by lymphocytes in vitro (ELISA).
Groups (n=5 per group) of specific pathogen free BALB/C mice were used. The Positive control group was treated with vehicle (oral gavage) and 5 μg/day dexamethasone by subcutaneous injection to induce immune suppression. Vehicle control animals (negative control) were treated with vehicle alone (oral gavage). One group of animals was treated with 17α-ethynylandrost-5-ene-3β,7β,17β-triol at 0.1 mg/day by oral gavage. Another group was treated with 1 mg/day of 17α-ethynylandrost-5-ene-3β,7β,17β-triol was administered to the animals oral gavage. The results were analyzed by two-tailed Student's t-test with equal variance. The animals were injected in the right hind footpad with 50 μL of freshly prepared sensitizing dose of TNP-OVA. […] Single cell suspensions were prepared, resuspended in 1 mL PBS-BSA (1%) and counted. Cell numbers, IL-4, IL-5 and IFNγ were measured.

For the next series, the system named is 11β-HSD1. Briefly: expression of 11β-HSD1 in osteoblasts of treated mice. The note with it: mouse, in vivo.
In the next series the test system is osteoprotegerin. Put plainly: osteoprotegerin levels in dexamethasone treated mice. As to conditions: vehicle, dexamethasone and compound at 4 mg/kg/day; p<0.05. The class given is in vivo. On the procedure:
Osteoprotegerin levels in mice that were treated with vehicle and dexamethasone at 10 μg/day (positive control group) had 3.3 pMol/L osteoprotegerin, while animals treated with vehicle, dexamethasone and 17α-ethynyl-5-androstene-3β,7β,17β-triol at 4 mg/kg/day had 6.4 pMol/L osteoprotegerin (p<0.05).

Series [2] has as its system osteoblasts and osteocytes. Put plainly: osteoblast and osteocyte apoptosis in vertebral bone of ovariectomized mice (TUNEL). The class given is in vivo, Swiss Webster mice. From the text:
The degree of apoptosis of osteoblasts and osteocytes in murine vertebral bone as a function of estrogen deficiency was examined. Swiss Webster mice (four months old) were ovariectomized. Twenty-eight days later, the animals were sacrificed, vertebrae were isolated, fixed and embedded, and then undecalcified in methacrylate.

A further series addresses estrogen receptor-α (Homo sapiens, UniProt P03372). Briefly: interaction with sex hormone receptor. The class given is binding.

Sequence of estrogen receptor-α (P03372 whole entry): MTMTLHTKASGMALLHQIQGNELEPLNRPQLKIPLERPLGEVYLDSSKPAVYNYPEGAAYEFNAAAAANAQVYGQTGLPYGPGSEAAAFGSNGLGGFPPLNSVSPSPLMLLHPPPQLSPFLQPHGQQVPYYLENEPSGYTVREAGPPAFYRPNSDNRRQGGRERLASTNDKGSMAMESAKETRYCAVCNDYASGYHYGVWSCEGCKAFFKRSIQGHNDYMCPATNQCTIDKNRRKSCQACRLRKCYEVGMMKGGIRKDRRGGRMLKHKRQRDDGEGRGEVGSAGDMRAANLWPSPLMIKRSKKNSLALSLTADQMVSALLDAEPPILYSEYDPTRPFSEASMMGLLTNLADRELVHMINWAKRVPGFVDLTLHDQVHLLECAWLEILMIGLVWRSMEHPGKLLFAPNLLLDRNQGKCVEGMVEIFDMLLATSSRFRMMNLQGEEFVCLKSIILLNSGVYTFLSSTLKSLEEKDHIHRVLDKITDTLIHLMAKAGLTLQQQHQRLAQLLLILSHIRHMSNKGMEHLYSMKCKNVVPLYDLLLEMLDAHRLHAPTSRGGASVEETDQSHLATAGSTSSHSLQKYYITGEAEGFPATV

As for `C#C[C@]1(O)CC[C@H]2[C@@H]3[C@@H](O)C=C4C[C@@H](O)CC[C@]4(C)[C@H]3CC[C@@]21C` [17α-ethynylandrost-5-ene-3β,7β,17β-triol], the “average number of lymphocytes in PLNs” value in series [1] (0.1 mg/day oral gavage) was 11.1×10^6 per lymph node. The “IFNγ, IL-4 and IL-5 levels compared to vehicle control” value in series [1] (compound 1.0 and 0.1 mg/day, dexamethasone 5 μg/day) is recorded as “increased”. Further, the “decrease of expression of 11β-HSD1 in osteoblasts” value in the series on 11β-HSD1 is reported as “about 50%”. In the series with osteoprotegerin, this molecule gave an osteoprotegerin of 6.4 pmol/L. Further, the “osteoblast and osteocyte apoptosis” value in series [2] was “reduce apoptosis”. Moreover, on estrogen receptor-α, the “interaction with estrogen receptor-α” value is “do not interact”.

(Values after US20080221074A1, “Drug Screen and Treatment Method” (priority 2006, published 2008).)
